# What was measured:
# Format in all cases: cell-based, human
# [1] = tested on: bladder cancer cell lines; assay: CellTiter-Glo assay, growth inhibition at 1 h exposure
# Description: (§1) Select bladder cancer cell lines were seeded at 10,000 cells/well in black-walled 96 well plates and incubated for 24 h. Cells were treated with compound in their respective media (as recommended by ATCC) at concentrations of 500 to 7.8 μM dissolved in two-fold dilution increments or vehicle for 1 h, followed by replacement of treatment media with normal growth media. After 24 h, plates with cells were incubated at room temperature for 30 min, followed by the addition of 20 μL of CellTiter-Glo® luminescent cell viability assay reagent (Promega) and mixing. After 2 min of incubation at room temperature, luminescence for each plate was measured using IVIS. Relative survival for each treatment group was calculated using vehicle control. All treatments were performed in quadruplicate.
# RT112 cell line = assay: Relative survival at varying concentration and exposure time, 24 h recovery; settings: 5 min exposure time
# Description: (§2) FIG. 4 provides the relative survival of RT4 cells in part A and RT112 cells in part B that were treated with varying concentrations of III for different exposure times followed by a 24 h recovery.
# Select bladder cancer cell lines were seeded at 10,000 cells/well in black-walled 96 well plates and incubated for 24 h. […] After 24 h, plates with cells were incubated at room temperature for 30 min, followed by the addition of 20 μL of CellTiter-Glo® luminescent cell viability assay reagent (Promega) and mixing. After 2 min of incubation at room temperature, luminescence for each plate was measured using IVIS. Relative survival for each treatment group was calculated using vehicle control. All treatments were performed in quadruplicate.
# RT4 cell line = assay: as above; settings: 5 min exposure time
# Description: as §2, §1
compound,measurement,setting,value
"CN1/C(=C/C=C/c2n(Cc3ccc4ccccc4c3)c(Cl)c(Cl)[n+]2Cc2ccc3ccccc3c2)Oc2ccccc21.[Cl-] [III, 4,5-dichloro-2-((1E,3Z)-3-(3-methylbenzoxazol-2(3H)-ylidene)prop-1-en-1-yl)-1,3-bis(naphthalen-2-ylmethyl)-1H-imidazolium chloride]",GI50 compared with both triphenylphosphonium compounds,[1],extremely lower GI50 concentrations
same,concentration that inhibits cell survival,RT112 cell line,40 µM
same,concentration that inhibits cell survival,RT4 cell line,10 µM

# From US11197873B2, “Azolium salts for treatment of non-muscle invasive bladder cancer” (The University of Akron, priority 2019, dated 2021)
